Experimental data: patent publication US20260265298A1, “PEPTIDE SUBSTRATES AND INHIBITORS OF CATHEPSIN B” (The Regents of the University of California, priority 2023, published 2026)
[ ]: non-standard residue; d: D form. The star is where a group is joined. AMC = Cc1cc(=O)oc2cc(N*)ccc12; Nle = CCCC[C@H](N)C(=O)O; Cbz = O=C(OCc1ccccc1)*

Experiments:
Assay type in all cases: biochemical
[1] = target: T1, cathepsin B in homogenates of human neuroblastoma SHSY-5Y and SK-N-MC cells (Homo sapiens, UniProt P07858); assay: Cathepsin B (CA-074-sensitive) activity in human neuroblastoma cell homogenates; conditions: for cathepsin B activity detected in cell homogenate: pH 4.6; for monitoring of cathepsin B (CA-074-sensitive) activity in cell homogenate: pH 4.6, 5.5, 7.2
T1 construct: homogenates of human neuroblastoma cell lines, SHSY-5Y and SK-N-MC, and mouse microglia cell line, BV2; endogenous in cells; host or cells: SH-SY5Y and SK-N-MC human neuroblastoma cell homogenates
Method: (§1) Cathepsin B activity in human neuroblastoma and mouse microglia. Characterization of Z-Nle-Lys-Arg-AMC substrate in proteolytic activity assays for specific cathepsin B activity of cell homogenates (prepared in 0.32 M sucrose) was conducted at 40 mM citrate phosphate pH 4.6, 5.5, and 7.2, 5 mM DTT, 1 mM EDTA, 100 mM NaCl, 1.2% DMSO, and homogenates of human neuroblastoma cell lines, SHSY-5Y and SK-N-MC, and mouse microglia cell line, BV2. A concentration of 6 μM Z-Nle-Lys-Arg-AMC, Z-Arg-Arg-AMC, and Z-Phe-Arg-AMC substrates were used in the proteolytic activity assays. Cell homogenates were diluted 1:10 prior to addition to assays. […] Assays were performed in 96-well plates at room temperature (25° C.) in a total volume of 100 μl with triplicates. Cell homogenates were incubated with CA-074 or inhibitor controls at RT for 30 minutes in the absence of substrate, followed by addition of substrate and incubation at 37° C. Fluorescence was quantified at 15, 30, and 60 minutes after substrate was added, by a Biotek Synergy HTX microplate reader with excitation at 360 nm, and emission at 460 nm, gain 50, top optics and read height at 1 mm. Prism GraphPad software was used to analyze data.

[2] = target: T2, cathepsin B in homogenates of mouse microglia BV2 cells (Mus musculus, UniProt P10605); assay: Cathepsin B (CA-074-sensitive) activity in mouse microglia cell homogenates; conditions: for cathepsin B activity detected in cell homogenate: pH 4.6; for monitoring of cathepsin B (CA-074-sensitive) activity in cell homogenate: pH 4.6, 5.5, 7.2
T2 construct: homogenates of human neuroblastoma cell lines, SHSY-5Y and SK-N-MC, and mouse microglia cell line, BV2; endogenous in cells; host or cells: BV2 mouse microglia cells (homogenate; cytosol fraction in the low nutrient stress assay)
T2 sequence (P10605 80-333): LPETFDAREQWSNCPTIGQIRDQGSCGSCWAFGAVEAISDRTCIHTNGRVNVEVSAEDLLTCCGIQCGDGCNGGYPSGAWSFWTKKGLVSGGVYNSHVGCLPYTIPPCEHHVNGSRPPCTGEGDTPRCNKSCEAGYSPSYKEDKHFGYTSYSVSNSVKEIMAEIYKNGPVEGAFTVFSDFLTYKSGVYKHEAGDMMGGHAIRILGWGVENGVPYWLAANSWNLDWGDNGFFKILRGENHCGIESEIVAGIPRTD
Method: as §1

human cathepsin B [3] = target: T3, human cathepsin B (Homo sapiens, UniProt P07858); assay: Cathepsin B activity with fluorogenic Z-peptide-AMC substrates (specific activity, pH profile); conditions: for cleavage by cathepsin B: pH 4.6 and 7.2, 40 μM substrate ('Table 1' comparison)
T3 construct: purchased R & D Systems 953-CY-010
Method: (§2) Cathepsin B activity with Z-Arg-Arg-AMC and Z-Phe-Arg-AMC substrates at pH 4.6 and 7.2. Cathepsin B (0.04 ng/μL) activity was assessed with Z-Arg-Arg-AMC and Z-Phe-Arg-AMC substrates (40 μM final concentration) (Table 1) in 40 mM citrate phosphate buffer pH 4.6 or Tris-HCl pH 7.2 in 1 mM EDTA, 100 mM NaCl, and 5 mM DTT with incubation at room temperature (25° C.) in triplicate and AMC fluorescence readings per second (RFU/s) (excitation 360 nm, emission 460 nm) were recorded over a period of 30 min by BioTek Synergy HTX plate reader (Software Version 3.08.01). Enzyme initial velocity was calculated using the highest slope recorded for 10 consecutive fluorescent readings within the initial 30 min. The mean and standard deviation (SD) were determined from triplicates. RFU/s were converted to pmol/min/μg (specific activity) using AMC standard curves. All data were plotted, calculated, and analyzed using GraphPad Prism (Version 9.4.1).
Analysis of pH-dependent cathepsin B activity with fluorogenic substrates designed from MSPMS data. For comparison of cathepsin B activity at pH 4.6, pH 5.5, and pH 7.2 with multiple fluorogenic substrates, cathepsin B (0.04 ng/μL) was incubated with 40 μM substrates consisting of Z-Lys-Arg-AMC. Z-Phe-Arg-AMC. Z-Arg-Arg-AMC. Z-Gly-Lys-Arg-AMC, Z-Val-Lys-Arg-AMC, Z-Tyr-Lys-Arg-AMC. Z-Phe-Lys-Arg-AMC, Z-Trp-Lys-Arg-AMC, Z-Leu-Lys-Arg-AMC, Z-Ala-Lys-Arg-AMC, Z-Nle-Arg-Arg-AMC, and Z-Nle-Lys-Arg-AMC. AMC product formation (RFU/s) was monitored in 40 mM citrate phosphate, pH 4.6 and pH 7.2, 1 mM EDTA, 100 mM NaCl, and 5 mM DTT was determined from the average of RFU/s triplicates at each pH condition.
For analysis of pH-dependent activity cathepsin B (0.04 ng/μL), proteolytic activity was monitored over the pH range of pH 2.2-9.0 in 40 mM citrate phosphate (pH 2.2 to pH 6.6) and 40 mM Tris-HCl (pH 7.0 to 9.0), 1 mM EDTA, 100 mM NaCl, and 5 mM DTT, with preincubation in each pH buffer for 10 min prior to initiating the assay by addition of Z-Nle-Lys-Arg-AMC, Z-Arg-Arg-AMC, or Z-Phe-Arg-AMC to a final concentration of 40 μM to generate the pH curve data.

cathepsin L = target: T4, cathepsin L (Homo sapiens, UniProt P07711); assay: Substrate selectivity: cleavage of AMC substrates by cathepsin L
T4 construct: active cathepsin L (R & D Systems, #952-CY-010); purchased R & D Systems 952-CY-010
T4 sequence (P07711 114-333): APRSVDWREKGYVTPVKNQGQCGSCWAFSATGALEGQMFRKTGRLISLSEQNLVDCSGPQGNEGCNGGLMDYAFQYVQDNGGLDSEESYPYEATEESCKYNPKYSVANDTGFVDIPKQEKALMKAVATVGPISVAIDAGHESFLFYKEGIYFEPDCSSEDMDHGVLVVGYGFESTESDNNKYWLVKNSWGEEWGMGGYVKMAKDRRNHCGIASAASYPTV
Method: [Worded in the source for another target; used here, by the source, with some conditions changed.] as §2
(§3) For evaluation of cathepsin B and cysteine cathepsins for substrate selectivity each cathepsin was incubated with 4 μM substrates consisting of Z-Phe-Arg-AMC. Z-Arg-Arg-AMC, and Z-Nle-Lys-Arg-AMC, activity was monitored in 40 mM citrate phosphate (pH 4.6, pH 5.5 and pH 7.2), 1 mM EDTA, 100 mM NaCl, and 5 mM DTT for cathepsin B (0.04 ng/μL), cathepsin K (0.03 ng/μL), cathepsin L (0.03 ng/μL), cathepsin S (0.14 ng/μL), cathepsin V (0.04 ng/μL), and cathepsin X (0.20 ng ng/μL). Since cathepsin X cannot cleave any of the AMC substrates, MCARPPGFSAFK(Dnp)-OH (R & D Systems #ES005) was used to verify that cathepsin X was active.

cathepsin K = target: T5, cathepsin K (Homo sapiens, UniProt P43235); assay: Substrate selectivity: cleavage of AMC substrates by cathepsin K
T5 construct: active cathepsin K (Abcam, #ab157067); purchased Abcam ab157067
T5 sequence (P43235 115-329): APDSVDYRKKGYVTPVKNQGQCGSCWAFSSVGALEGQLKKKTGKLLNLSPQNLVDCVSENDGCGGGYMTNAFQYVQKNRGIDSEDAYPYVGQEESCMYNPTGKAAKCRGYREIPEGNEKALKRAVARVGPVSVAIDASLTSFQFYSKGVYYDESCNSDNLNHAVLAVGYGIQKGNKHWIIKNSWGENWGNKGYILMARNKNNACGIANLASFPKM

cathepsin S = target: T6, cathepsin S (Homo sapiens, UniProt P25774); assay: Substrate selectivity: cleavage of AMC substrates by cathepsin S
T6 construct: purchased R & D Systems 1183-CY-010
T6 sequence (P25774 115-331): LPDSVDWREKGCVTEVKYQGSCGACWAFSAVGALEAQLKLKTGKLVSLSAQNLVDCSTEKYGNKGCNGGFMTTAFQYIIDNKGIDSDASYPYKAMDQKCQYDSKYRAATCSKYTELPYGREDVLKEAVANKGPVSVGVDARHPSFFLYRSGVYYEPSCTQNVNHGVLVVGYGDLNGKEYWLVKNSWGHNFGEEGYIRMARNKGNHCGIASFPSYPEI
Method: as §2
as §3, with “For evaluation of cathepsin B and cysteine cathepsins for substrate selectivity each cathepsin was incubated with 4 μM substrates consisting of Z-Phe-Arg-AMC.” left out

cathepsin V = target: T7, cathepsin V (Homo sapiens, UniProt O60911); assay: Substrate selectivity: cleavage of AMC substrates by cathepsin V
T7 construct: purchased R & D Systems 1080-CY-010
T7 sequence (O60911 114-334): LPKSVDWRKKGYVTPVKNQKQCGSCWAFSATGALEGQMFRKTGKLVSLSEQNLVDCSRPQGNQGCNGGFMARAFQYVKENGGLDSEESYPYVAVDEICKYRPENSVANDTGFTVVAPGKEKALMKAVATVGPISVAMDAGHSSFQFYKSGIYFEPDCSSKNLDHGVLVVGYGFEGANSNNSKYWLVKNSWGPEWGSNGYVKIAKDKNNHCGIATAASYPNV
Method: as §2
as §3, with “For evaluation of cathepsin B and cysteine cathepsins for substrate selectivity each cathepsin was incubated with 4 μM substrates consisting of Z-Phe-Arg-AMC.” left out

mouse cathepsin B = target: T8, mouse cathepsin B (Mus musculus, UniProt P10605); assay: Mouse cathepsin B specific activity with AMC substrates; conditions: pH 4.6, 5.5 and 7.2; 40 μM substrate
T8 construct: purchased R & D Systems 965-CY-010
T8 sequence (P10605 80-333 limits assumed): as the sequence (P10605 80-333) above
Method: FIGS. 11a-11b. […] (FIG. 11a) pH-dependence of mouse cathepsin B activity with Z-Nle-Lys-Arg-AMC compared to Z-Arg-Arg-AMC and Z-Phe-Arg-AMC substrates. Cathepsin B specific activity with the three different substrates (40 μM) were assessed at pH 4.6, 5.5, and 7.2. Data points are shown as the mean+SD (n=3).

human cathepsin B [4] = target: T3, human cathepsin B; assay: Cathepsin B activity with fluorogenic Z-peptide-AMC substrates (specific activity, pH profile); conditions: pH 4.6 and pH 7.2; substrates at 4 μM (FIG. 3)
[5] = CA-074 1 μM, 30 min pre-incubation
[6] = pH 4.6, 5.5 and 7.2 (FIGS. 5a-5c)
[7] = pH 4.6 and 7.2, 40 μM substrate ('Table 1' comparison)

CCCNC(=O)[C@H]1O[C@@H]1C(=O)N[C@H](C(=O)N1CCC[C@H]1C(=O)O)[C@@H](C)CC [CA-074]
effect on cathepsin B activity in cell homogenate [1, 5]: inhibition
effect on cathepsin B activity in cell homogenate [2, 5]: inhibition

Cbz-Arg-Arg-{AMC}
cleavage by cathepsin B at acidic pH (human cathepsin B [3]; pH 4.6, 40 μM substrate): poor cleavage activity
cleavage by cathepsin B (human cathepsin B [3]): cleaved by cathepsin B and other cysteine cathepsins L, K, S, and V
specific activity at acidic pH as fraction of specific activity at neutral pH (human cathepsin B [3]; pH 4.6 vs pH 7.2): one-third
cleavage by cathepsin B at neutral pH (human cathepsin B [3]; pH 7.2, 40 μM substrate): readily cleaved
cleavage by cathepsin L (cathepsin L; [6]): cleaved by cathepsins L and V
cleavage by cathepsin L (cathepsin L; [7]): cleaved by cathepsin B and other cysteine cathepsins L, K, S, and V
cleavage by cathepsin K (cathepsin K; [7]): cleaved by cathepsin B and other cysteine cathepsins L, K, S, and V
cleavage by cathepsin S (cathepsin S; [7]): cleaved by cathepsin B and other cysteine cathepsins L, K, S, and V
cleavage by cathepsin V (cathepsin V; [6]): cleaved by cathepsins L and V
cleavage by cathepsin V (cathepsin V; [7]): cleaved by cathepsin B and other cysteine cathepsins L, K, S, and V
mouse cathepsin B specific activity (mouse cathepsin B): low
cathepsin B activity detected in cell homogenate [1]: none or little activity
monitoring of cathepsin B (CA-074-sensitive) activity in cell homogenate [1]: only low cathepsin B activity
cathepsin B activity detected in cell homogenate [2]: none or little activity
monitoring of cathepsin B (CA-074-sensitive) activity in cell homogenate [2]: only low cathepsin B activity

Cbz-Leu-Lys-Arg-{AMC}
cathepsin B specific activity compared among substrates (human cathepsin B [4]): less activity than Z-Nle-Lys-Arg-AMC

Cbz-Lys-Arg-{AMC}
cathepsin B specific activity compared among substrates (human cathepsin B [4]): lower activity than Z-Nle-Lys-Arg-AMC

Cbz-Phe-Arg-{AMC}
cleavage by cathepsin B (human cathepsin B [3]): cleaved by cathepsin B and other cysteine cathepsins L, K, S, and V
cleavage by cathepsin L (cathepsin L; [6]): cleaved by cathepsin L with greater activity than that for cathepsin B
cleavage by cathepsin L (cathepsin L; [7]): cleaved by cathepsin B and other cysteine cathepsins L, K, S, and V
cleavage by cathepsin K (cathepsin K; [6]): also cleaved by cathepsins K and V
cleavage by cathepsin K (cathepsin K; [7]): cleaved by cathepsin B and other cysteine cathepsins L, K, S, and V
cleavage by cathepsin S (cathepsin S; [7]): cleaved by cathepsin B and other cysteine cathepsins L, K, S, and V
cleavage by cathepsin V (cathepsin V; [6]): also cleaved by cathepsins K and V
cleavage by cathepsin V (cathepsin V; [7]): cleaved by cathepsin B and other cysteine cathepsins L, K, S, and V
mouse cathepsin B specific activity (mouse cathepsin B): moderate specific activity
monitoring of cathepsin B (CA-074-sensitive) activity in cell homogenate [1]: detected cathepsin B as well as other cysteine cathepsin activity
monitoring of cathepsin B (CA-074-sensitive) activity in cell homogenate [2]: detected cathepsin B as well as other cysteine cathepsin activity

Cbz-[Nle]-Arg-Arg-{AMC}
less activity compared to Z-Nle-Lys-Arg-AMC (human cathepsin B [3]; pH 4.6): about 30%
less activity compared to Z-Nle-Lys-Arg-AMC (human cathepsin B [3]; pH 7.2): ~50%

Cbz-[Nle]-Lys-Arg-{AMC}
pH of maximal activity (human cathepsin B [3]; pH profile pH 2 to 9): 5.5-6.5 pH
cleavage by cathepsin L (cathepsin L; [6]): not cathepsins L. K. S, and V activities
cleavage by cathepsin K (cathepsin K; [6]): not cathepsins L. K. S, and V activities
cleavage by cathepsin S (cathepsin S; [6]): not cathepsins L. K. S, and V activities
cleavage by cathepsin V (cathepsin V; [6]): not cathepsins L. K. S, and V activities
mouse cathepsin B specific activity (mouse cathepsin B): highest specific activity
cathepsin B activity detected in cell homogenate [1]: robust cathepsin B activity
monitoring of cathepsin B (CA-074-sensitive) activity in cell homogenate [1]: highly sensitive for monitoring cathepsin B activity
cathepsin B activity detected in cell homogenate [2]: robust cathepsin B activity
monitoring of cathepsin B (CA-074-sensitive) activity in cell homogenate [2]: highly sensitive for monitoring cathepsin B activity
cathepsin B specific activity compared among substrates (human cathepsin B [4]): higher than all other substrates at both pHs
